In this experiment the target is T1, BRM (Homo sapiens, UniProt P51531).
T1 construct: In-Cell Western Screen of BRM Degradation in SW1573 Cells; endogenous in cells; host or cells: SW1573 cells
Briefly: Western blot / In-Cell Western screen of BRM degradation in SW1573 cells. In kind it is cell-based. Particulars: overnight (18-20 hours) treatment; for Dmax: read-out: Dmax (%) (% degraded). As to the method: Western Blot Screen of BRM Degradation in SW1573 Cells
To assess BRM degradation (Dmax and DC50) cells were seeded at 8000/well in 96-well black/clear-bottom plates in 180 μL DMEM growth media (containing 1% pen-strep, 1% HEPES and 10% FBS) per well. Plates were incubated overnight to allow adhesion. The next morning cells were treated by adding 20 μL of 10× target compound concentration (1% DMSO) to appropriate wells and returned to incubator for overnight (18-20 hours). The final DMSO concentration was 0.1%.
For lysing, adherent cells were washed once with 100 μL of DPBS. Cells were lysed in 40 μL of 1× RIPA+HALT protease inhibitor on ice for 10 minutes and frozen until use at −80° C. Thawed lysates were cleaned by filtration in 1.2 µm filter plates, or alternatively, were spun clean at 2300 g at 4° C. for 30 minutes.
For blotting, for each Western sample 30 μL of lysate was added to 10 μL of 4×LDS sample buffer, then denatured at 95° C. for 5 minutes in the thermal cycler and placed on ice. Samples were loaded on 4-15% Tris/Glycine gels and run for 25 minutes at 250 constant volts in 1×Tris/Glycine buffer with 4 μL of ladder and 12 μL of each sample loaded for each blot. Protein was transferred from gels to NC with BioRad Turbo dry-transfer unit with the Turbo/midi default program. All blots were rinsed with ddH2O and blocked for 1 hour at room temperature in 5% BSA in TBST (0.1%) on rocker. Blots were exposed to primary antibody in 5% BSA in TBST (0.1%) overnight at 4° C. on rocker (1:1000 for BRM (Cell Signaling Tech. cat #11966) and 1:2000 for alpha-tubulin (Cell Signaling Tech. cat #3873), a control protein. Blot was washed with TBST (0.1%) three times for 5 minutes on rocker at room temperature. Secondary antibody was added, and blots were incubated on a room temperature rocker for 1 hour with 1:18,000 anti-rabbit-HRP and/or anti-mouse-HRP in 5% BSA in TBST (0.1%). Blots were washed three times in TBST (0.1%) for 5 minutes at room temperature on the rocker. Signal was developed with Femto Maximum Sensitivity substrate for 4 minutes and blots read on ChemiDoc™.
In-Cell Western Screen of BRM Degradation in SW1573 Cells
To assess BRM degradation (Dmax and DC50), cells were seeded at 8000/well in 96-well black/clear-bottom plates in 180 μL DMEM growth media (containing 1% pen-strep, 1% HEPES and 10% FBS) per well. Plates were incubated overnight to allow adhesion. The next morning cells were treated by adding 20 μL of 10× compound (1% DMSO) to appropriate wells and returned to incubator for overnight (18-20 hours). The final DMSO concentration was 0.1%.
For processing, the plates were removed from incubator, the media was removed, and immediately 200 μL of cold (4° C.) DPBS was added to all wells. DPBS was then removed, and 50 μL of 4% paraformaldehyde (PFA) in DPBS (4° C.) was added to all wells, and the plates were incubated at room temperature for 20 minutes. PFA was then removed, and 200 μL of TBS-T containing 0.5% Triton X-100 was added to all wells, and the plates were incubated at room temperature for 30 minutes. TBS-T containing 0.5% Triton X-100 was then removed, and 50 μL of Li-Cor blocking solution was added, and the plates were incubated at room temperature for a minimum of one hour. The blocking solution was removed, and 50 μL of Li-Cor blocking solution containing primary antibody cocktail was added (1:1000 for BRM (Cell Signaling Tech. cat #11966) and 1:2000 for alpha-tubulin (Sigma cat #T6074), a control protein. Plates were then placed in cold room until the next day.
The next day plates were washed three times with TBS-T, 200 μL per well. Fifty […] of secondary antibody cocktail in LI-COR blocking solution (anti-rabbit_800 nm and anti-mouse_680 nm) was added to all wells (diluted 1:5000). The plates were incubated at room temperature for at least one hour while protected from light. The plates were washed twice with TBS-T, 200 μL per well. […]
(In general: In western blotting, separated proteins are transferred to a membrane and probed.)

This note sets out measurements from patent publication US20250064945A1 (Arvinas Operations, Inc., priority 2021, published 2025).

T1 sequence (P51531 whole entry): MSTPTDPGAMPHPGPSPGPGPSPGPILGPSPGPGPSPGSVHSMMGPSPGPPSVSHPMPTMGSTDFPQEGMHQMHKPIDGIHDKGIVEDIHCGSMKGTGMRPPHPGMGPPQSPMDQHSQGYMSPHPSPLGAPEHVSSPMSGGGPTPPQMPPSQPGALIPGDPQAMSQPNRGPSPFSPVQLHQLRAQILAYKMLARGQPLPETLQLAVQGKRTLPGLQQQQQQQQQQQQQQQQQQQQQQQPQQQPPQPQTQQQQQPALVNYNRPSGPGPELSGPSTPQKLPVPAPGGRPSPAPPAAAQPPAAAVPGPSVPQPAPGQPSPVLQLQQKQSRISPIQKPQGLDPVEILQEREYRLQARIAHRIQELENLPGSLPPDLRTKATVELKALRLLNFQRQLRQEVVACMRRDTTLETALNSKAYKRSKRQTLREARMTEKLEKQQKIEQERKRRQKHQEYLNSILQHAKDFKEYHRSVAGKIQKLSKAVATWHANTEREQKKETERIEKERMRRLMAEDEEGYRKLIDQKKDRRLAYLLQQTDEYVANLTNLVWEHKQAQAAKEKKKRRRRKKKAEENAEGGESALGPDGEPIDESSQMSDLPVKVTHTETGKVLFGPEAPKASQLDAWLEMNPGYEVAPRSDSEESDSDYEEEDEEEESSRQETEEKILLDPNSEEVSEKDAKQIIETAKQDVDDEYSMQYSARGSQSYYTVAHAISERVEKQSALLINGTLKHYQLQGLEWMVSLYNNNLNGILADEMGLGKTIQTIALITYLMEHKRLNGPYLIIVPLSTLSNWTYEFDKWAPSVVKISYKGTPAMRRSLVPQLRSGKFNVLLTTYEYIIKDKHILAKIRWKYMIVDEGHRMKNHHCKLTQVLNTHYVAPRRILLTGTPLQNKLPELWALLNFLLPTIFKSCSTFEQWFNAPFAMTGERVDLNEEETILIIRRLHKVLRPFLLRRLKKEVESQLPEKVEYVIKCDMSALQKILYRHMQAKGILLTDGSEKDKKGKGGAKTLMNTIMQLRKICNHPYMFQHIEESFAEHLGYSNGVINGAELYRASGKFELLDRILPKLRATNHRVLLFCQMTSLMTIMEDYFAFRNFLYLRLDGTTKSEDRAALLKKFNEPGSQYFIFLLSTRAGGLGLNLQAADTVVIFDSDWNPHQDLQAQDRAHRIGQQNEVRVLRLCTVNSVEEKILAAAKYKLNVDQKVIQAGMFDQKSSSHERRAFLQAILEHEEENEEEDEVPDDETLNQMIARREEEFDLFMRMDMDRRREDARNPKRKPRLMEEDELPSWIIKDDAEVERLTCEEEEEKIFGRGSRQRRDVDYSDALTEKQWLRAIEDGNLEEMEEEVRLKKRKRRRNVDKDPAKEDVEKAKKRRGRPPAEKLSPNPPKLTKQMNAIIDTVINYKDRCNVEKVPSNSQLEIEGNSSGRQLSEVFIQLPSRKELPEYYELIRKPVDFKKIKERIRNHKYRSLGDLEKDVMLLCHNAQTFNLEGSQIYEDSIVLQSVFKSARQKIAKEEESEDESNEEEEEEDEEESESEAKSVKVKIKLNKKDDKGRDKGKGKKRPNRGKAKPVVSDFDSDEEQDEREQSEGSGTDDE

Consider `Cc1ncsc1-c1ccc([C@H](C)NC(=O)[C@@H]2C[C@@H](O)CN2C(=O)[C@@H](c2cc(N3CCC(CN4CCC(O[C@H]5C[C@H](N6CCC(O[C@H]7C[C@H](C#Cc8cc(-c9ccccc9O)nnc8N)C7)CC6)C5)CC4)CC3)no2)C(C)C)cc1` [Compound 5, (2S,4R)-4-hydroxy-N-[(1S)-1-[4-(4-methyl-1,3-thiazol-5-yl)phenyl]ethyl]-1-[(2R)-3-methyl-2-{3-[4-({4-[(1r,3r)-3-(4-[(1r,3r)-3-{2-[3-amino-6-(2-hydroxyphenyl)pyridazin-4-yl]ethynyl}cyclobutoxy]piperidin-1-yl}cyclobutoxy]piperidin-1-yl}methyl)piperidin-1-yl]-1,2-oxazol-5-yl}butanoyl]pyrrolidine-2-carboxamide], for which the DC50 was under 2.5 nM and the Dmax was over 75%.

As for `Cc1ncsc1-c1ccc([C@H](C)NC(=O)[C@@H]2C[C@@H](O)CN2C(=O)[C@@H](c2cc(N3CCC(CN4CCC(O[C@H]5C[C@H](n6cc(CN7C8CCC7CN(c7cc(-c9ccccc9O)nnc7N)C8)cn6)C5)CC4)CC3)no2)C(C)C)cc1` [Compound 12, (2S,4R)-4-hydroxy-N-[(1S)-1-[4-(4-methyl-1,3-thiazol-5-yl)phenyl]ethyl]-1-[(2R)-3-methyl-2-{3-[4-({4-[(1r,3r)-3-[4-({3-[3-amino-6-(2-hydroxyphenyl)pyridazin-4-yl]-3,8-diazabicyclo[3.2.1]octan-8-yl}methyl)-1H-pyrazol-1-yl]cyclobutoxy]piperidin-1-yl}methyl)piperidin-1-yl]-1,2-oxazol-5-yl}butanoyl]pyrrolidine-2-carboxamide], the DC50 was 2.5 to 10 nM and the Dmax is over 75%. For the compound `Cc1ncsc1-c1ccc([C@H](C)NC(=O)[C@@H]2C[C@@H](O)CN2C(=O)[C@@H](c2cc(N3CCC(CN4CCC(O[C@H]5C[C@H](Cn6cnc(-c7cn8cc(-c9ccccc9O)nc8nc7N)c6)C5)CC4)CC3)no2)C(C)C)cc1` [Compound 43, (2S,4R)-4-hydroxy-N-[(1S)-1-[4-(4-methyl-1,3-thiazol-5-yl)phenyl]ethyl]-1-[(2R)-3-methyl-2-{3-[4-({4-[(1r,3r)-3-({4-[7-amino-2-(2-hydroxyphenyl)imidazo[1,2-a]pyrimidin-6-yl]-1H-imidazol-1-yl}methyl)cyclobutoxy]piperidin-1-yl}methyl)piperidin-1-yl]-1,2-oxazol-5-yl}butanoyl]pyrrolidine-2-carboxamide], the DC50 fell in the range of 2.5 to 10 nM and the Dmax is over 75%. As to `Cc1nccn1-c1ccc([C@H](C)NC(=O)[C@@H]2C[C@@H](O)CN2C(=O)[C@H](c2cc(OCCN3CCN(CCOc4cc(N5CCN(c6cc(-c7ccccc7O)nnc6N)CC56COC6)ccn4)CC3)no2)C(C)C)cc1` [Compound 21, (2S,4R)-1-[(2S)-2-{3-[2-(4-{2-[(4-{8-[3-amino-6-(2-hydroxyphenyl)pyridazin-4-yl]-2-oxa-5,8-diazaspiro[3.5]nonan-5-yl}pyridin-2-yl)oxy]ethyl}piperazin-1-yl)ethoxy]-1,2-oxazol-5-yl}-3-methylbutanoyl]-4-hydroxy-N-[(1S)-1-[4-(2-methyl-1H-imidazol-1-yl)phenyl]ethyl]pyrrolidine-2-carboxamide], the DC50 was at least 30 nM. `Cc1ncsc1-c1ccc([C@H](C)NC(=O)[C@@H]2C[C@@H](O)CN2C(=O)[C@@H](c2cc(N3CCC(CN4CCC(O[C@H]5C[C@H](N6CCN(C[C@@H]7[C@H]8CN(c9cc(-c%10ccccc%10O)nnc9N)C[C@@H]78)CC6)C5)CC4)CC3)no2)C(C)C)cc1` [Compound 9, (2S,4R)-4-hydroxy-N-[(1S)-1-[4-(4-methyl-1,3-thiazol-5-yl)phenyl]ethyl]-1-[(2R)-3-methyl-2-{3-[4-({4-[(1r,3r)-3-(4-{[(1R,5S,6S)-3-[3-amino-6-(2-hydroxyphenyl)pyridazin-4-yl]-3-azabicyclo[3.1.0]hexan-6-yl]methyl}piperazin-1-yl)cyclobutoxy]piperidin-1-yl}methyl)piperidin-1-yl]-1,2-oxazol-5-yl}butanoyl]pyrrolidine-2-carboxamide]: the DC50 was under 2.5 nM and the Dmax was over 75%. For `CC(C)[C@@H](C(=O)N1C[C@H](O)C[C@H]1C(=O)N[C@@H](C)c1ccc(-c2ccnn2C)cc1)c1cc(OCCN2CCN(Cc3ccc(C/C=C/c4cn5cc(-c6ccccc6O)nc5nc4N)cc3)CC2)no1` [Compound 46, (2S,4R)-1-[(2R)-2-(3-{2-[4-({4-[(2E)-3-[7-amino-2-(2-hydroxyphenyl)imidazo[1,2-a]pyrimidin-6-yl]prop-2-en-1-yl]phenyl}methyl)piperazin-1-yl]ethoxy}-1,2-oxazol-5-yl)-3-methylbutanoyl]-4-hydroxy-N-[(1S)-1-[4-(1-methyl-1H-pyrazol-5-yl)phenyl]ethyl]pyrrolidine-2-carboxamide] the same measures were 2.5 to 10 nM and over 75%. On to `Cc1ncsc1-c1ccc([C@H](C)NC(=O)[C@@H]2C[C@@H](O)CN2C(=O)[C@@H](c2cc(N3CCC(CN4CCC(O[C@H]5C[C@H](Oc6cc(CC(F)c7cc(-c8ccccc8O)nnc7N)ccn6)C5)CC4)CC3)no2)C(C)C)cc1` (stereo partly drawn) [Compound 2, (2S,4R)-4-hydroxy-N-[(1S)-1-[4-(4-methyl-1,3-thiazol-5-yl)phenyl]ethyl]-1-[(2R)-3-methyl-2-{3-[4-({4-[(1r,3r)-3-[(4-{2-[3-amino-6-(2-hydroxyphenyl)pyridazin-4-yl]-2-fluoroethyl}pyridin-2-yl)oxy]cyclobutoxy]piperidin-1-yl}methyl)piperidin-1-yl]-1,2-oxazol-5-yl}butanoyl]pyrrolidine-2-carboxamide], for which the DC50 lay within 2.5 to 10 nM and the Dmax is over 75%. Consider `Cc1ncsc1-c1ccc([C@H](C)NC(=O)[C@@H]2C[C@@H](O)CN2C(=O)[C@@H](c2cc(N3CCC(CN4CCC(O[C@H]5C[C@H](N6CCC(CN7CC8(C7)CN(c7cc(-c9ccccc9O)nnc7N)CCN8C)CC6)C5)CC4)CC3)no2)C(C)C)cc1` [Compound 27, (2S,4R)-4-hydroxy-N-[(1S)-1-[4-(4-methyl-1,3-thiazol-5-yl)phenyl]ethyl]-1-[(2R)-3-methyl-2-{3-[4-({4-[(1r,3r)-3-[4-({8-[3-amino-6-(2-hydroxyphenyl)pyridazin-4-yl]-5-methyl-2,5,8-triazaspiro[3.5]nonan-2-yl}methyl)piperidin-1-yl]cyclobutoxy]piperidin-1-yl}methyl)piperidin-1-yl]-1,2-oxazol-5-yl}butanoyl]pyrrolidine-2-carboxamide], for which the DC50 fell in the range of 2.5 to 10 nM and the Dmax is over 75%. Regarding `Cc1nccn1-c1ccc([C@H](C)NC(=O)[C@@H]2C[C@@H](O)CN2C(=O)[C@@H](c2cc(OCCN3CCN(CCOc4cc(N5CCN(c6cc(-c7ccccc7O)nnc6N)CC56COC6)ccn4)CC3)no2)C(C)C)cc1` [Compound 20, (2S,4R)-1-[(2R)-2-{3-[2-(4-{2-[(4-{8-[3-amino-6-(2-hydroxyphenyl)pyridazin-4-yl]-2-oxa-5,8-diazaspiro[3.5]nonan-5-yl}pyridin-2-yl)oxy]ethyl}piperazin-1-yl)ethoxy]-1,2-oxazol-5-yl}-3-methylbutanoyl]-4-hydroxy-N-[(1S)-1-[4-(2-methyl-1H-imidazol-1-yl)phenyl]ethyl]pyrrolidine-2-carboxamide], the DC50 lay in the range of 2.5 to 10 nM and the Dmax was over 75%.

Usually DC50 stands for the midpoint of the concentration-degradation curve. Lower therefore signals a more potent degrader. As a reminder, the Dmax is the largest share of the target that was removed.
